Results on four compounds are retold here after patent US7105548B2, “Heteroaryl substituted triazole modulators of metabotropic glutamate receptor-5” (Merck & Co., Inc., priority 2001, dated 2006).

Structures can show the parent of a compound that is named as a salt.

As a reminder, the melting point is the temperature of the solid-liquid transition.

`Clc1cccc(-n2cnc(-c3ccccn3)n2)c1` (as salt: hydrochloride) [Example 1, 2-[1-(3-chlorophenyl)-1H-1,2,4-triazol-3-yl]pyridine]: the melting point is 221 to 223 °C.

The compound `N#Cc1cccc(-c2ncn(-c3ccccn3)n2)c1` (as salt: hydrochloride) [Example 3, 3-(1-pyridin-2-yl-1H-1,2,4-triazol-3-yl)benzonitrile] displayed a melting point of 185 to 188 °C. Then `Clc1cccc(-c2ncn(-c3ccccn3)n2)c1` (as salt: hydrochloride) [Example 4, 2-[3-(3-chlorophenyl)-1H-1,2,4-triazol-1-yl]pyridine], with 125 to 128 °C.

In turn, `N#Cc1cccc(-n2cnc(-c3ccccn3)n2)c1` [Example 2, 3-(3-pyridin-2-yl-1H-1,2,4-triazol-1-yl)benzonitrile] returned a melting point of 194 to 195 °C.
